Experimental data taken from patent publication US5679671A, “Amino acid derivative” (Eisai Co., Ltd., priority 1993, dated 1997).
pIC50: −log10 of the molar value.

Molecular target: T1, NEP (Rattus norvegicus, UniProt P07861)
T1 sequence (P07861 1-750): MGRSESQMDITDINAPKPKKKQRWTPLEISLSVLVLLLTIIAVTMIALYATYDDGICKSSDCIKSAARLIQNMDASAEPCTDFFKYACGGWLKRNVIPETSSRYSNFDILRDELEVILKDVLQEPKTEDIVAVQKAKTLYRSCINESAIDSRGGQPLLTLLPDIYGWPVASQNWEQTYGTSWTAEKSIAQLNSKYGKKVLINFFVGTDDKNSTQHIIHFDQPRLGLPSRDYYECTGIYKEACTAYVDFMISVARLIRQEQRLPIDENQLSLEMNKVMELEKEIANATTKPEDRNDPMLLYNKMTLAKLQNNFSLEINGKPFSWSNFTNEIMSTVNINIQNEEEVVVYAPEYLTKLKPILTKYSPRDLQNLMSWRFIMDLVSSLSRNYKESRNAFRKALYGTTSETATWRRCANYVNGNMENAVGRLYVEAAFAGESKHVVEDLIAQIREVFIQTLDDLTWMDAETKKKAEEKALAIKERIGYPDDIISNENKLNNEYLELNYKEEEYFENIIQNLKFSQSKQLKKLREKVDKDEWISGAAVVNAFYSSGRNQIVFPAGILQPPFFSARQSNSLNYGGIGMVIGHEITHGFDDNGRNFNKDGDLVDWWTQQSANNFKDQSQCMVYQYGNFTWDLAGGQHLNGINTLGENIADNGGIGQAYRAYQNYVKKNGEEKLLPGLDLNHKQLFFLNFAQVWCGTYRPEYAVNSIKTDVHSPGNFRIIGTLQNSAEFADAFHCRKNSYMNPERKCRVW
Test: NEP inhibition activity (Experiment E-1)
Format: biochemical
Design: membrane fraction prepared from rat renal cortex; from tissue; host or cells: rat renal cortex, membrane fraction (method of Booth and Kenny)
Details: rat renal cortex membrane fraction
Protocol: As a source of the enzyme NEP, a membrane fraction prepared from rat renal cortex in accordance with the method of Booth and Kenny (A Rapid Method for the Purification of Microvilli from Rabbit Kidney., Andrew G. Booth and A. John Kenny, Biochem. j., 1974, 142,575-581.) was employed. The NEP activity was determined in accordance with the method of Orlowsky and Wilk (Purification and Specificity of a Membrane-Bound Metalloendpeptidase from Bovine Pituitaries., Marian Orlowsky and Shrwin Wilk, Biochemistry, 1981, 20, 4942-4950.). Now the procedure will be briefly described.
As a substrate, benzoyl-glycyl-arginyl-arginyl-2-naphthylamide (benzoyl-Gly-Arg-Arg-2 naphthylamide (Nova Biochem, Switzerland)) was used. In the presence of an NEP enzyme preparation and excessive leucine aminopeptidase (sigma chemical Co., U.S.A.), the liberated naphthylamine was made to undergo color development with first garnet (Sigma chemical Co., U.S.A.), followed by the measurement of the absorbance at a wavelength of 540 nm.
To determine the NEP inhibition activity and the ACE inhibition activity, the inhibitor was added to the assay systems of both enzyme activities as described above in such a manner as to give the final concentrations of 1, 3, 10, 30, 100, […] and 1000 nM and inhibition curves were prepared. Then the concentration at which 50% inhibition was achieved was taken as IC50.

| SMILES | pIC50 |
| --- | --- |
| O=C(N[C@H]1Cc2ccccc2[C@H]2CCC[C@@H](C(=O)O)N2C1=O)[C@@H](S)Cc1ccccc1 [Comp. cpd. E-1, [4S-[4α,7α(R*),12bβ]]-7-[(1-oxo-2-(S)-thio-3-phenyl-propyl)amino]-1,2,3,4,6,7,8,12b-octahydro-6-oxopyrido-[2,1-a][2]benzazepine-4-carboxylic acid, reference compound] | 7.57 |
| CC[C@H](C)[C@H](S)C(=O)N[C@H]1Cc2ccc(-c3ccccc3)cc2[C@H]2CCC[C@@H](C(=O)O)N2C1=O [Example C-14, [4S-[4α,7α(R*),12bβ]]-7-[[(2S,3S)-3-Methyl-1-oxo-2-thiopentyl]amino]-6-oxo-11-phenyl-1,2,3,4,6,7,8,12b-octahydropyrido[2,1-a][2]benzazepine-4-carboxylic acid] | 7.85 |
| CC(C)[C@H](S)C(=O)N[C@H]1Cc2ccc(-c3ccccc3)cc2[C@H]2CCC[C@@H](C(=O)O)N2C1=O [Example E-10, [4S-[4α,7α(R*),12bβ]]-7-[(S)-2-Mercapto-3-methylbutyrylamino]-6-oxo-11-phenyl-1,2,3,4,6,7,8,12b-octahydropyrido[2,1-a][2]benzazepine-4-carboxylic acid] | 8.09 |
